Tested on: 231/LM2-4 human breast cancer cells
Assay: Advanced metastatic breast cancer model (231/LM2-4), survival after primary tumor resection
Type: in vivo, CB-17 SCID mice
Settings: for Median survival: therapy initiated 19 days after resection
Excerpt: The original cell line, MDA-MB 231, was a gift from Dr. Jeffrey F. Lemontt in September, 1989, together with other variants of this cell line. Cell line 231/LM2-4 (human breast cancer cells) used in the study was derived by one of the inventors as described in Munoz R, Man S, Shaked Y, et al. Highly efficacious non-toxic treatment for advanced metastatic breast cancer using combination UFT-cyclophosphamide metronomic chemotherapy, Cancer Res 2006; 66:3386-91.
Two million 231/LM2-4 human breast cancer cells were implanted into the mammary fat pad of 6-8 week old female CB-17 SCID mice purchased from Charles River Canada. Twenty days later when tumor volumes were approximately 400 mm^3, the primary tumors were surgically resected. Therapy was initiated 19 days after resection when visceral metastases were established in sites such as lung and liver. Mice were randomized into groups of 4 and treated as follows: 1) Control—vehicle; 2) Low dose metronomic oral topotecan; 3) pazopanib; 4) Low dose metronomic oral topotecan+pazopanib; 5) Maximum tolerated dose topotecan; and 6) maximum tolerated dose topotecan+pazopanib. The schedule and doses of drugs used were metronomic oral topotecan 1 mg/kg/d by gavage, maximum tolerated dose topotecan 1.5 mg/kg by gavage for 5 consecutive days followed by 16 days break ip, pazopanib 150 mg/kg/d by gavage, and control mice were given the topotecan vehicle and/or pazopanib vehicle. The oral topotecan and pazopanib preparations were mixed just prior to administration to avoid possible drug interaction. Institutional guidelines for survival endpoint were followed.

CC[C@@]1(O)C(=O)OCc2c1cc1n(c2=O)Cc2cc3c(CN(C)C)c(O)ccc3nc2-1 [topotecan, (S)-10-[(dimethylamino)methyl]-4-ethyl-4,9-dihydroxy-1H-pyrano[3′,4′:6,7]indolizino [1,2-b]quinoline-3,14-(4H,12H)-dione]
Survival benefit compared to control untreated mice (FIG. 1) (LDM oral topotecan alone, 1 mg/kg/d by gavage): neither low dose metronomic (LDM) oral topotecan alone nor pazopanib alone had any survival benefit
Median survival (low dose metronomic (LDM) oral topotecan alone, 1 mg/kg/d by gavage): 56 days
Median survival (maximum tolerated dose (MTD) topotecan 1.5 mg/kg for 5 consecutive days followed by 16 days break): 63 days

From patent US20170027938A1, “Combination” (Novartis AG, priority 2011, published 2017)
